Assays:
cheatgrass = assay: Test B preemergence/postemergence greenhouse plant response rating 0 to 10; format: in vivo, Bromus secalinus; conditions: 0 to 10 scale
Procedure, shortened: (§1)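 Planted seeds are treated preemergence with compound dissolved in a non-phytotoxic solvent, while postemergence applications go onto plants of two to eighteen cm. Plants stay in the greenhouse twelve to sixteen days and are then rated visually relative to controls.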

cotton = assay: as above; format: in vivo, Gossypium hirsutum; conditions: 0 to 10 scale
Procedure, shortened: as §1

lambsquarters [1] = assay: as above; format: in vivo, Chenopodium album; conditions: 0 to 10 scale
Procedure, shortened: as §1

rice = assay: as above; format: in vivo, Oryza sativa; conditions: 0 to 10 scale
Procedure, shortened: as §1

soybean [2] = assay: as above; format: in vivo, Glycine max; conditions: 0 to 10 scale
Procedure, shortened: as §1

velvetleaf [3] = assay: as above; format: in vivo, Abutilon theophrasti; conditions: 0 to 10 scale
Procedure, shortened: as §1

wild buckwheat = assay: as above; format: in vivo, Polygonum convolvulus; conditions: 0 to 10 scale
Procedure, shortened: as §1

purple nutsedge = assay: as above; format: in vivo, Cyperus rotundus; conditions: 0 to 10 scale
Procedure, shortened: as §1

barley = assay: Test C preemergence/postemergence greenhouse plant response rating 0 to 100; format: in vivo, Hordeum vulgare; conditions: POSTEMERGENCE; for Plant response rating Barley Igri: 0 to 100 scale
Procedure, shortened: (§2)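 Compounds in non-phytotoxic solvent applied preemergence to sandy loam one day after planting, postemergence at the 1–4 leaf stage, or to ~2.5 cm floodwater over silt loam.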

corn = assay: as above; format: in vivo, Zea mays; conditions: POSTEMERGENCE; for Plant response rating, Corn: 0 to 100 scale
Procedure, shortened: as §2

lambsquarters [4] = assay: as above; format: in vivo, Chenopodium album; conditions: POSTEMERGENCE; for Plant response rating Lambsquarters: 0 to 100 scale
Procedure, shortened: as §2

morningglory = assay: as above; format: in vivo, Ipomoea hederacea; conditions: POSTEMERGENCE; for Plant response rating, Morningglory: 0 to 100 scale
Procedure, shortened: as §2

rape = assay: as above; format: in vivo, Brassica napus; conditions: POSTEMERGENCE; for Plant response rating, Rape: 0 to 100 scale
Procedure, shortened: as §2

sorghum = assay: as above; format: in vivo, Sorghum bicolor; conditions: POSTEMERGENCE; for Plant response rating, Sorghum: 0 to 100 scale
Procedure, shortened: as §2

soybean [5] = assay: as above; format: in vivo, Glycine max; conditions: POSTEMERGENCE; for Plant response rating, Soybean: 0 to 100 scale
Procedure, shortened: as §2

sugar beet = assay: as above; format: in vivo, Beta vulgaris; conditions: POSTEMERGENCE; for Plant response rating, Sugar beet: 0 to 100 scale
Procedure, shortened: as §2

velvetleaf [6] = assay: as above; format: in vivo, Abutilon theophrasti; conditions: POSTEMERGENCE; for Plant response rating, Velvetleaf: 0 to 100 scale
Procedure, shortened: as §2

umbrella sedge = assay: Test C flood test plant response rating 0 to 100; format: in vivo, Cyperus difformis; conditions: for Plant response rating Umbrella sedge: flood test species listed under POSTEMERGENCE, 0 to 100 scale
Procedure, shortened: as §2

Fc1cc(Cl)c(OCCCl)cc1-c1nn2c(c1Cl)CCCC2 [Compound 49]
90: Plant response rating (0 to 100), Velvetleaf (velvetleaf [6]; Rate 16 g/ha) | Plant response rating Umbrella sedge (umbrella sedge; 62 g/ha)
60: Plant response rating Barley Igri (barley; 250 g/ha) | Plant response rating (0 to 100), Rape (rape; Rate 16 g/ha) | Plant response rating, Sorghum (sorghum; 250 g/ha)
100: Plant response rating Lambsquarters (lambsquarters [4]; 62 g/ha) | Plant response rating Lambsquarters (lambsquarters [4]; 250 g/ha) | Plant response rating (0 to 100), Lambsquarters (lambsquarters [4]; Rate 4 g/ha) | Plant response rating (0 to 100), Lambsquarters (lambsquarters [4]; Rate 16 g/ha) | Plant response rating, Morningglory (morningglory; 62 g/ha) | Plant response rating, Morningglory (morningglory; 250 g/ha) | Plant response rating, Rape (rape; 250 g/ha) | Plant response rating, Sugar beet (sugar beet; 62 g/ha) | Plant response rating, Sugar beet (sugar beet; 250 g/ha) | Plant response rating (0 to 100), Sugar beet (sugar beet; Rate 4 g/ha) | Plant response rating (0 to 100), Sugar beet (sugar beet; Rate 16 g/ha) | Plant response rating, Velvetleaf (velvetleaf [6]; 62 g/ha) | Plant response rating, Velvetleaf (velvetleaf [6]; 250 g/ha)
6: Plant response rating, Rice (rice; Rate 200 g/ha, POSTEMERGENCE) | Plant response rating, Nutsedge (purple nutsedge; Rate 200 g/ha, POSTEMERGENCE)
5: Plant response rating, Rice (rice; POSTEMERGENCE, Rate 50 g/ha)
20: Plant response rating (0 to 100), Barley Igri (barley; Rate 16 g/ha)
1: Plant response rating, Velvetleaf (velvetleaf [3]; Rate 200 g/ha, PREEMERGENCE)
10: Plant response rating, Cotton (cotton; POSTEMERGENCE, Rate 50 g/ha) | Plant response rating, Cotton (cotton; POSTEMERGENCE, Rate 200 g/ha) | Plant response rating, Lambsquarter (lambsquarters [1]; PREEMERGENCE, Rate 50 g/ha) | Plant response rating, Lambsquarter (lambsquarters [1]; Rate 200 g/ha, POSTEMERGENCE) | Plant response rating, Lambsquarter (lambsquarters [1]; Rate 200 g/ha, PREEMERGENCE) | Plant response rating, Velvetleaf (velvetleaf [3]; Rate 200 g/ha, POSTEMERGENCE) | Plant response rating, Wild buckwheat (wild buckwheat; POSTEMERGENCE, Rate 50 g/ha) | Plant response rating, Wild buckwheat (wild buckwheat; Rate 200 g/ha, POSTEMERGENCE) | Plant response rating, Wild buckwheat (wild buckwheat; Rate 200 g/ha, PREEMERGENCE) | Plant response rating (0 to 100), Barley Igri (barley; Rate 4 g/ha) | Plant response rating (0 to 100), Corn (corn; Rate 4 g/ha)
4: Plant response rating, Cheatgrass (cheatgrass; POSTEMERGENCE, Rate 50 g/ha)
95: Plant response rating Umbrella sedge (umbrella sedge; 250 g/ha)
30: Plant response rating (0 to 100), Corn (corn; Rate 16 g/ha) | Plant response rating (0 to 100), Sorghum (sorghum; Rate 4 g/ha)
70: Plant response rating, Rape (rape; 62 g/ha) | Plant response rating, Soybean (soybean [5]; 62 g/ha) | Plant response rating (0 to 100), Umbrella sedge (umbrella sedge; Rate 16 g/ha, under POSTEMERGENCE head (flood test species))
3: Plant response rating, Soybean (soybean [2]; Rate 200 g/ha, PREEMERGENCE)
80: Plant response rating, Soybean (soybean [5]; 250 g/ha)
50: Plant response rating, Corn (corn; 250 g/ha) | Plant response rating (0 to 100), Morningglory (morningglory; Rate 16 g/ha) | Plant response rating (0 to 100), Rape (rape; Rate 4 g/ha) | Plant response rating, Sorghum (sorghum; 62 g/ha) | Plant response rating (0 to 100), Soybean (soybean [5]; Rate 16 g/ha) | Plant response rating (0 to 100), Velvetleaf (velvetleaf [6]; Rate 4 g/ha)
0: Plant response rating, Cheatgrass (cheatgrass; PREEMERGENCE, Rate 50 g/ha) | Plant response rating, Rice (rice; PREEMERGENCE, Rate 50 g/ha) | Plant response rating, Rice (rice; Rate 200 g/ha, PREEMERGENCE) | Plant response rating, Soybean (soybean [2]; PREEMERGENCE, Rate 50 g/ha) | Plant response rating, Velvetleaf (velvetleaf [3]; PREEMERGENCE, Rate 50 g/ha) | Plant response rating, Nutsedge (purple nutsedge; PREEMERGENCE, Rate 50 g/ha) | Plant response rating, Nutsedge (purple nutsedge; Rate 200 g/ha, PREEMERGENCE)
8: Plant response rating, Soybean (soybean [2]; POSTEMERGENCE, Rate 50 g/ha) | Plant response rating, Soybean (soybean [2]; Rate 200 g/ha, POSTEMERGENCE)
9: Plant response rating, Velvetleaf (velvetleaf [3]; POSTEMERGENCE, Rate 50 g/ha)
7: Plant response rating, Cheatgrass (cheatgrass; POSTEMERGENCE, Rate 200 g/ha) | Plant response rating, Wild buckwheat (wild buckwheat; PREEMERGENCE, Rate 50 g/ha)
2: Plant response rating, Cheatgrass (cheatgrass; Rate 200 g/ha, PREEMERGENCE) | Plant response rating, Cotton (cotton; PREEMERGENCE, Rate 50 g/ha) | Plant response rating, Cotton (cotton; Rate 200 g/ha, PREEMERGENCE) | Plant response rating, Nutsedge (purple nutsedge; POSTEMERGENCE, Rate 50 g/ha)
40: Plant response rating Barley Igri (barley; 62 g/ha) | Plant response rating, Corn (corn; 62 g/ha) | Plant response rating (0 to 100), Morningglory (morningglory; Rate 4 g/ha) | Plant response rating (0 to 100), Sorghum (sorghum; Rate 16 g/ha) | Plant response rating (0 to 100), Soybean (soybean [5]; Rate 4 g/ha) | Plant response rating (0 to 100), Umbrella sedge (umbrella sedge; POSTEMERGENCE section, flood test, Rate 4 g/ha)

— patent publication US6358885B1, “Substituted phenylheterocyclic herbicides” (Mississippi State University, priority 1992, dated 2002)
